Data published in publication PMC8550792, “Evolution of kinase polypharmacology across HSP90 drug discovery” (Cell Chemical Biology, 2021).
Read-outs that look alike come from different tables or passages of the source.

Key:
ABL2/ARG = molecular target: T1, ABL2/ARG (Homo sapiens, UniProt P42684); experiment: HotSpot in vitro kinase radiometric assay; type: biochemical; conditions: for remaining activity at 10 µM: ATP 30 uM, Data 1, Data 2
T1 construct: purchased Reaction Biology (HotSpot contract assay)

BLK = molecular target: T2, BLK (Homo sapiens, UniProt P51451); experiment: HotSpot in vitro kinase radiometric assay; type: biochemical; conditions: for remaining activity at 10 µM: ATP 10 uM, Data 1, Data 2
T2 construct: purchased Reaction Biology (HotSpot contract assay)
Summary of the method: (§1)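 Kinase + substrate + cofactors + 32P-ɣ-ATP or 33P-ɣ-ATP incubated with compound; mixture spotted on filter paper; bound radiolabelled product counted. Direct catalytic activity readout.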

LYN B = molecular target: T3, LYN B (Homo sapiens, UniProt P07948); experiment: HotSpot in vitro kinase radiometric assay; type: biochemical; conditions: for remaining activity at 10 µM: ATP 20 uM, Data 1, Data 2
T3 construct: purchased Reaction Biology (HotSpot contract assay)
Summary of the method: as §1

c-Src = molecular target: T4, c-Src (Homo sapiens, UniProt P12931); experiment: HotSpot in vitro kinase radiometric assay; type: biochemical; conditions: for remaining activity at 10 µM: ATP 15 uM, Data 1, Data 2
T4 construct: purchased Reaction Biology (HotSpot contract assay)
Summary of the method: as §1

PEAK1 = molecular target: T5, PEAK1 (Homo sapiens, UniProt Q9H792); experiment: HotSpot in vitro kinase radiometric assay; type: biochemical; conditions: for remaining activity at 10 µM: ATP 30 uM, Data 1, Data 2
T5 construct: purchased Reaction Biology (HotSpot contract assay)

FGR = molecular target: T6, FGR (Homo sapiens, UniProt P09769); experiment: HotSpot in vitro kinase radiometric assay; type: biochemical; conditions: for remaining activity at 10 µM: ATP 50 uM, Data 1, Data 2
T6 construct: purchased Reaction Biology (HotSpot contract assay)

FYN = molecular target: T7, FYN (Homo sapiens, UniProt P06241); experiment: HotSpot in vitro kinase radiometric assay; type: biochemical; conditions: for remaining activity at 10 µM: ATP 30 uM, Data 1, Data 2
T7 construct: purchased Reaction Biology (HotSpot contract assay)

PASK = molecular target: T8, PASK (Homo sapiens, UniProt Q96RG2); experiment: HotSpot in vitro kinase radiometric assay; type: biochemical; conditions: for remaining activity at 10 µM: ATP 50 uM, Data 1, Data 2
T8 construct: purchased Reaction Biology (HotSpot contract assay)
Text: (§2) Accordingly, we selected five additional representative HSP90 inhibitors, at least one from each chemical class, including both synthetic inhibitors and natural products.
(§3) Accordingly, we screened the hit compound and the two leads for kinase off-target inhibition using the 16-kinase panel and the same in vitro catalytic assay used previously.
(§4) This radioisotope binding assay was designed to directly detect the true product without the use of modified substrates, coupling enzymes, or detection antibodies thus enabling to directly measure inhibition of catalytic activity. Test or control compounds were incubated with kinase, substrate, cofactors, and radioisotope-labeled ATP (32P-ɣ-ATP or 33P-ɣ-ATP). The reaction mixtures were then spotted onto filter papers, which bind the radioisotope-labeled catalytic product.

TRKA = molecular target: T9, TRKA (Homo sapiens, UniProt P04629); experiment: HotSpot in vitro kinase radiometric assay; type: biochemical; conditions: for remaining activity at 10 µM: ATP 100 uM, Data 1, Data 2
T9 construct: purchased Reaction Biology (HotSpot contract assay)
Text: as §2, §3, §4

TRKC = molecular target: T10, TRKC (Homo sapiens, UniProt Q16288); experiment: HotSpot in vitro kinase radiometric assay; type: biochemical; conditions: for remaining activity at 10 µM: ATP 100 uM, Data 1, Data 2
T10 construct: purchased Reaction Biology (HotSpot contract assay)

LCK = molecular target: T11, LCK (Homo sapiens, UniProt P06239); experiment: HotSpot in vitro kinase radiometric assay; type: biochemical; conditions: for remaining activity at 10 µM: ATP 15 uM, Data 1, Data 2
T11 construct: purchased Reaction Biology (HotSpot contract assay)

YES/YES1 = molecular target: T12, YES/YES1 (Homo sapiens, UniProt P07947); experiment: HotSpot in vitro kinase radiometric assay; type: biochemical; conditions: for remaining activity at 10 µM: ATP 50 uM, Data 1, Data 2
T12 construct: purchased Reaction Biology (HotSpot contract assay)

16-kinase panel = 16-kinase panel screening, in vitro radiometric assay; type: biochemical, human; conditions: 10 μM
[1] = molecular target: human 3-methyl-2-oxobutanoate dehydrogenase kinase (BCKDHK); set-up: method as in Besant et al., 2002; conditions: ref Besant et al., 2002; cited from earlier work
[2] = molecular target: bacterial sensor kinase PhoQ; set-up: method as in Guarnieri et al., 2008; conditions: ref Guarnieri et al., 2008; cited from earlier work
[3] = molecular target: human pyruvate dehydrogenase kinases; set-up: method as in Kato et al., 2007; conditions: ref Kato et al., 2007; cited from earlier work
ABL1 = ABL1 (Homo sapiens, UniProt P00519); experiment: HotSpot in vitro kinase radiometric assay; type: biochemical; set-up: purchased Reaction Biology (HotSpot contract assay); conditions: for remaining activity at 10 µM: ATP 40 uM, Data 1, Data 2
DDR1 = DDR1 (Homo sapiens, UniProt Q08345); experiment: HotSpot in vitro kinase radiometric assay; type: biochemical; set-up: purchased Reaction Biology (HotSpot contract assay); conditions: for remaining activity at 10 µM: ATP 100 uM, Data 1, Data 2
PDK2/PDHK2 = molecular target: T13, PDK2/PDHK2 (Homo sapiens, UniProt Q15119); experiment: HotSpot in vitro kinase radiometric assay; type: biochemical; conditions: read-out: % inhibition at 10 uM: PDK2
T13 construct: purchased Reaction Biology (HotSpot contract assay)
Summary of the method: as §1

PDK4/PDKH4 = molecular target: T14, PDK4/PDKH4 (Homo sapiens, UniProt Q16654); experiment: HotSpot in vitro kinase radiometric assay; type: biochemical
T14 construct: purchased Reaction Biology (HotSpot contract assay)
Summary of the method: as §1

HSP90AB1 = tested on: HSP90AB1; set-up: method as in ChEMBL23 (accessed: 23/08/2018); conditions: average of reported values; ref ChEMBL23 (accessed: 23/08/2018); cited from earlier work
PIM1 = tested on: PIM1; set-up: method as in ChEMBL23 (accessed: 23/08/2018); conditions: average of reported values; ref ChEMBL23 (accessed: 23/08/2018); cited from earlier work
CDK2 = tested on: CDK2; set-up: method as in ChEMBL23 (accessed: 23/08/2018); conditions: average of reported values; ref ChEMBL23 (accessed: 23/08/2018); cited from earlier work
PRKD2 = tested on: PRKD2; set-up: method as in ChEMBL23 (accessed: 23/08/2018); conditions: average of reported values; ref ChEMBL23 (accessed: 23/08/2018); cited from earlier work
PRKD3 = tested on: PRKD3; set-up: method as in ChEMBL23 (accessed: 23/08/2018); conditions: average of reported values; ref ChEMBL23 (accessed: 23/08/2018); cited from earlier work
CSF1R = tested on: CSF1R; set-up: method as in ChEMBL23 (accessed: 23/08/2018); conditions: average of reported values; ref ChEMBL23 (accessed: 23/08/2018); cited from earlier work
RPS6KA3 = tested on: RPS6KA3; set-up: method as in ChEMBL23 (accessed: 23/08/2018); conditions: average of reported values; ref ChEMBL23 (accessed: 23/08/2018); cited from earlier work
ROCK1 = tested on: ROCK1; set-up: method as in ChEMBL23 (accessed: 23/08/2018); conditions: average of reported values; ref ChEMBL23 (accessed: 23/08/2018); cited from earlier work
ROCK2 = tested on: ROCK2; set-up: method as in ChEMBL23 (accessed: 23/08/2018); conditions: average of reported values; ref ChEMBL23 (accessed: 23/08/2018); cited from earlier work

T4 sequence (P12931 whole entry): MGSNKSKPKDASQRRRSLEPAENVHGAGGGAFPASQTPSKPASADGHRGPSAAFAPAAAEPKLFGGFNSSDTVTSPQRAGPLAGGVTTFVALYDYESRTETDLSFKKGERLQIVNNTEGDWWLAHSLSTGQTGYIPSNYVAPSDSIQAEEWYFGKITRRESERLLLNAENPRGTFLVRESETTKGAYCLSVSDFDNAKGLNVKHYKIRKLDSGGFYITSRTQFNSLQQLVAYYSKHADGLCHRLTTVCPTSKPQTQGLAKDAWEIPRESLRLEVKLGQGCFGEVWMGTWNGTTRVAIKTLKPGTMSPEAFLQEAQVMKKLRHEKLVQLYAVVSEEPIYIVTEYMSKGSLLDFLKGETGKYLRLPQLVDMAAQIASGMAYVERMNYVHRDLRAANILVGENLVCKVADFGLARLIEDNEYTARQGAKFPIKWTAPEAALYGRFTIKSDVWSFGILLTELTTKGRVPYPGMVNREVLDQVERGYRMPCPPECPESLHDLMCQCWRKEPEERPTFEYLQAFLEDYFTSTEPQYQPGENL
Chain of ABL1 (P00519 whole entry): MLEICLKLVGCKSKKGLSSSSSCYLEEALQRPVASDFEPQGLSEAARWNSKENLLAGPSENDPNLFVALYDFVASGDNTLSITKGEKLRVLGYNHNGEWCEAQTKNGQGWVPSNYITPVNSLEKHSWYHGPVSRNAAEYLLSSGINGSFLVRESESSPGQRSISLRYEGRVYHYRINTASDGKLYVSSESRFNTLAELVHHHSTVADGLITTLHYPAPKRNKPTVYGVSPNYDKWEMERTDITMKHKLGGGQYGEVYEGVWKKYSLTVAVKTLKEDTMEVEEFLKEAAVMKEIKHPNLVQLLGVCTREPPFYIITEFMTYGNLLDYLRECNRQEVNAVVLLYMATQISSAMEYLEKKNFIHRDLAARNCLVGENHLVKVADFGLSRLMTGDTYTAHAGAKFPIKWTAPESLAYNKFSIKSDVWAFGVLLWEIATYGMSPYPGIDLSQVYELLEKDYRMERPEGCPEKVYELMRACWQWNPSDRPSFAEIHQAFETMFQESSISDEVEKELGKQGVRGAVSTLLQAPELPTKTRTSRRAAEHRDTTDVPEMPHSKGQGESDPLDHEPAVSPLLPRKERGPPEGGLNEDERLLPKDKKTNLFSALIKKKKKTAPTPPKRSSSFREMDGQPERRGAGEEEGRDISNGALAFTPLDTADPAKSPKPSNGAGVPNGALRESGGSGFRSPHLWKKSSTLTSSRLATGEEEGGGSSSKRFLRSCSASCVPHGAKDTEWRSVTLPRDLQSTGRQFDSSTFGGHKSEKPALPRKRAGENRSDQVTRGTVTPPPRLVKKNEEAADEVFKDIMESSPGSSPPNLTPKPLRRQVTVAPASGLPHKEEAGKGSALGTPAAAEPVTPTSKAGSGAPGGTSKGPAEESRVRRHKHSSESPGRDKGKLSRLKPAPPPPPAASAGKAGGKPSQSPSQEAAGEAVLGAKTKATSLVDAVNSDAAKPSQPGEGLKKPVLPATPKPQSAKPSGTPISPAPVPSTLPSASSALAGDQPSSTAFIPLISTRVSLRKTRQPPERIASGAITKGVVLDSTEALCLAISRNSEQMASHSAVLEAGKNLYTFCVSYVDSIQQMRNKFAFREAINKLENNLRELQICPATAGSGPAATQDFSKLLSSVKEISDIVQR
T1 sequence (P42684 whole entry): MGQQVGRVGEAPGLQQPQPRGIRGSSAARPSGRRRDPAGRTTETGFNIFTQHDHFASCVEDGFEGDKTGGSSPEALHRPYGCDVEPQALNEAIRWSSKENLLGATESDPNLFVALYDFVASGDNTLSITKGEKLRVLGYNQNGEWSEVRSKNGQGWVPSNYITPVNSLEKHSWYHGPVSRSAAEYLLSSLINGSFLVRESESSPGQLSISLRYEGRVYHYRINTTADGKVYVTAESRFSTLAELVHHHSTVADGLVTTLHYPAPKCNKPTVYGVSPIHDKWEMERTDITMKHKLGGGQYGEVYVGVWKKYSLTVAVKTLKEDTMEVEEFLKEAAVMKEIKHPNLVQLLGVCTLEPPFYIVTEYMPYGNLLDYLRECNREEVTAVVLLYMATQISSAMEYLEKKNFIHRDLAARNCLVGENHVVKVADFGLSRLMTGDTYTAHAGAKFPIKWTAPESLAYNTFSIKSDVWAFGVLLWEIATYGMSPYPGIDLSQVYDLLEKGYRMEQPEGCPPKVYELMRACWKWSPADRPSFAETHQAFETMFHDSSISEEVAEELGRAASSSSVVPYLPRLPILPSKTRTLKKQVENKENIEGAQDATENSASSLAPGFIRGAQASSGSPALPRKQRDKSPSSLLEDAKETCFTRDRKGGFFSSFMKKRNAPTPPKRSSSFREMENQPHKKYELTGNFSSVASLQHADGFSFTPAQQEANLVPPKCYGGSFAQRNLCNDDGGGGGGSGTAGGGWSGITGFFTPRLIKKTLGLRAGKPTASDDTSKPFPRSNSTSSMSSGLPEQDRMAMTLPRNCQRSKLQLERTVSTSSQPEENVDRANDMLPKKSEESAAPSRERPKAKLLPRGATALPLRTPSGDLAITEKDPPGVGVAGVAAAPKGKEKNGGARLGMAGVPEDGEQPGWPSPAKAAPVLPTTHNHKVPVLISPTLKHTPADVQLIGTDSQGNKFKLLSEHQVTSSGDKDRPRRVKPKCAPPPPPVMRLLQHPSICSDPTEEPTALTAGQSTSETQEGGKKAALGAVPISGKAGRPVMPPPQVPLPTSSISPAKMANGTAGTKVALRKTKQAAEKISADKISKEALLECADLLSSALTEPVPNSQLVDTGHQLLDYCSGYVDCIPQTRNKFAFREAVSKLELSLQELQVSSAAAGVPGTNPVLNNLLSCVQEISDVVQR
T2 sequence (P51451 whole entry): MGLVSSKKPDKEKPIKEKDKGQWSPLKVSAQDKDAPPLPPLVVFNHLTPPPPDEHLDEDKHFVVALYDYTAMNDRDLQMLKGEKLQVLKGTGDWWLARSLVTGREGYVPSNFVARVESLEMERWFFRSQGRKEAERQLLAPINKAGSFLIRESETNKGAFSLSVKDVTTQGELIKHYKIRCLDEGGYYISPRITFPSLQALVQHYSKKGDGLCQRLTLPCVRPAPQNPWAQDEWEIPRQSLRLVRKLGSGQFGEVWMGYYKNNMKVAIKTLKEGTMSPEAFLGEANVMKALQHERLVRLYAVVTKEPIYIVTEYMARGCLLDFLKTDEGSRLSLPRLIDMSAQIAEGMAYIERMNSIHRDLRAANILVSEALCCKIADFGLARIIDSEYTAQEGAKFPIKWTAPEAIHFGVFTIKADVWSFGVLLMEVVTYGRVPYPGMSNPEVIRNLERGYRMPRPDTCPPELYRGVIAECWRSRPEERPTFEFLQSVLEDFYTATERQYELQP
T11 sequence (P06239 whole entry): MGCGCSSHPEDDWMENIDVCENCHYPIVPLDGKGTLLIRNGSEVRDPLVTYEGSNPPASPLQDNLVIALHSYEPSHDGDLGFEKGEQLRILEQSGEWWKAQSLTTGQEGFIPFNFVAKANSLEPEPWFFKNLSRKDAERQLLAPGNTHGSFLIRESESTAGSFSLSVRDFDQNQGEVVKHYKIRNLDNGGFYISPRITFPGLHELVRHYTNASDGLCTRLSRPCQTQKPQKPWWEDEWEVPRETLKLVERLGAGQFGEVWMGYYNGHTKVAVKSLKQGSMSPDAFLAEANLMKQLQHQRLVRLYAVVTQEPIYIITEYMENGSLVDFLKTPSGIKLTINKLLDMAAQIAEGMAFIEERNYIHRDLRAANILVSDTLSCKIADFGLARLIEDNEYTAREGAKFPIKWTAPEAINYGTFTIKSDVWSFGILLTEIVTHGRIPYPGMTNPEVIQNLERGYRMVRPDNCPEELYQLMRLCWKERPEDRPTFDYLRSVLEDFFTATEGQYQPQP
T9 sequence (P04629 33-796): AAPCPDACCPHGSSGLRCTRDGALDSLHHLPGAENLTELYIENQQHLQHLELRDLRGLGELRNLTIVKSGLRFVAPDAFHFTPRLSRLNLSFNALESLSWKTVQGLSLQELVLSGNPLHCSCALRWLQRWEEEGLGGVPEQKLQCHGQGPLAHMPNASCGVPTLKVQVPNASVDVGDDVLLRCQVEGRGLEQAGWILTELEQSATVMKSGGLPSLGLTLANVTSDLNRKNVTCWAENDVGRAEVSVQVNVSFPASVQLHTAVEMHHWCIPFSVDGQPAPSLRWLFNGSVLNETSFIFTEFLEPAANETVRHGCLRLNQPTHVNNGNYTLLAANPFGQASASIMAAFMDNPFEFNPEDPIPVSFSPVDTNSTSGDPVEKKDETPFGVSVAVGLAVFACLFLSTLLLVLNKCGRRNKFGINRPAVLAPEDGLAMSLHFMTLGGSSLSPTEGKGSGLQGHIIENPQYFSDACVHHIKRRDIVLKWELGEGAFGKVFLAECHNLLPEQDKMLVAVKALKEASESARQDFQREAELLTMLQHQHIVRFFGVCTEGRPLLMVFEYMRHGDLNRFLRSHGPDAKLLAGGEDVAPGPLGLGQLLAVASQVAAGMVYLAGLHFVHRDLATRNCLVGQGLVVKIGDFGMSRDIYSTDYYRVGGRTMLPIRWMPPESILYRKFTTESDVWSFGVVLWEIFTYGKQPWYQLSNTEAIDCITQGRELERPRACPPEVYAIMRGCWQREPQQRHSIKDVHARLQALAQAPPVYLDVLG
T14 sequence (Q16654 whole entry): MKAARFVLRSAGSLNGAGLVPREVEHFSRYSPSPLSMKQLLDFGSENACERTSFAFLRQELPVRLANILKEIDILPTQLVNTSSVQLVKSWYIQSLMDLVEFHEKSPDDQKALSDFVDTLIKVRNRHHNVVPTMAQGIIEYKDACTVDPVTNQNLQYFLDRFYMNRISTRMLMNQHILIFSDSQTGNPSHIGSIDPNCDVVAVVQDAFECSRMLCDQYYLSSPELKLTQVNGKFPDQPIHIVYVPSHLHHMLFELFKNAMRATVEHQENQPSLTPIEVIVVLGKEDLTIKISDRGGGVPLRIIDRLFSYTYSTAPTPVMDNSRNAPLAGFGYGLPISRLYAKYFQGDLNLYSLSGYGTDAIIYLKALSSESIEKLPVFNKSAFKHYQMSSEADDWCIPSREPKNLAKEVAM

With `C[C@@H]1C[C@H]2O[C@@H]2/C=C\C=C\C(=O)Cc2c(Cl)c(O)cc(O)c2C(=O)O1` [Radicicol] the remaining activity at 10 µM (ABL2/ARG; ABL2/ARG, read-out: % Enzyme Activity (relative to DMSO controls)) was 117%, the remaining activity at 10 µM (BLK; BLK, read-out: % Enzyme Activity (relative to DMSO controls)) was 104% and the remaining activity at 10 µM (LYN B; LYN B, read-out: % Enzyme Activity (relative to DMSO controls)) was 114%. For the same compound, the remaining activity at 10 µM (c-Src; c-Src, read-out: % Enzyme Activity (relative to DMSO controls)) was 96.8%, the remaining activity at 10 µM (PEAK1; PEAK1, read-out: % Enzyme Activity (relative to DMSO controls)) was 104% and the remaining activity at 10 µM (FGR; FGR, read-out: % Enzyme Activity (relative to DMSO controls)) was 112%. It also gave a remaining activity at 10 µM (FYN; FYN, read-out: % Enzyme Activity (relative to DMSO controls)) of 110%, a remaining activity at 10 µM (PASK; PASK, read-out: % Enzyme Activity (relative to DMSO controls)) of 94.4% and a remaining activity at 10 µM (TRKA; TRKA, read-out: % Enzyme Activity (relative to DMSO controls)) of 106%. For the same compound, the remaining activity at 10 µM (TRKC; TRKC, read-out: % Enzyme Activity (relative to DMSO controls)) was 98.6%, the remaining activity at 10 µM (LCK; LCK, read-out: % Enzyme Activity (relative to DMSO controls)) was 119% and the remaining activity at 10 µM (YES/YES1; YES/YES1, read-out: % Enzyme Activity (relative to DMSO controls)) was 103%. The “activity against the 16-kinase panel” value (16-kinase panel) was “inactive”, the IC50 [1] was 0.635 µM and the Kd [2] was 715 µM. For the same compound, the IC50 [3] was 230 to 400 µM, the remaining activity at 10 µM (ABL1; ABL1, read-out: % Enzyme Activity (relative to DMSO controls)) was 106% and the remaining activity at 10 µM (DDR1; DDR1, read-out: % Enzyme Activity (relative to DMSO controls)) was 105%.
Compound `CCNC(=O)c1n[nH]c(-c2cc(Cl)c(O)cc2O)c1-c1ccc(OC)cc1` [VER-49009] has a remaining activity at 10 µM (ABL2/ARG; read-out: % Enzyme Activity (relative to DMSO controls), ABL2/ARG) of 101%, an inhibition at 10 µM (ABL2/ARG; read-out: % inhibition at 10 uM: ABL2) of 1 ± 3% and a remaining activity at 10 µM (BLK; read-out: % Enzyme Activity (relative to DMSO controls), BLK) of 70.1%. It also gave an inhibition at 10 µM (BLK; read-out: % inhibition at 10 uM: BLK) of 24 ± 8%, a remaining activity at 10 µM (LYN B; read-out: % Enzyme Activity (relative to DMSO controls), LYN B) of 108% and an inhibition at 10 µM (LYN B; read-out: % inhibition at 10 uM: LYN B) of -6 ± 3%. For the same compound, the inhibition at 10 µM (PDK2/PDHK2) was 95 ± 5%, the remaining activity at 10 µM (PDK4/PDKH4; read-out: % Enzyme Activity (relative to DMSO controls), PDK4/PDKH4, 10uM, ATP 30 uM, Data 1, Data 2) was 15.1% and the inhibition at 10 µM (PDK4/PDKH4; read-out: % inhibition at 10 uM: PDK4) was 86 ± 1%. The remaining activity at 10 µM (c-Src; read-out: % Enzyme Activity (relative to DMSO controls), c-Src) was 65.9%, the inhibition at 10 µM (c-Src; read-out: % inhibition at 10 uM: SRC) was 35 ± 1% and the remaining activity at 10 µM (PEAK1; read-out: % Enzyme Activity (relative to DMSO controls), PEAK1) was 75.5%. The inhibition at 10 µM (PEAK1; read-out: % inhibition at 10 uM: PEAK1) was 24%, the remaining activity at 10 µM (FGR; read-out: % Enzyme Activity (relative to DMSO controls), FGR) was 99% and the inhibition at 10 µM (FGR; read-out: % inhibition at 10 uM: FGR) was 1%. The remaining activity at 10 µM (FYN; read-out: % Enzyme Activity (relative to DMSO controls), FYN) was 89.2%, the inhibition at 10 µM (FYN; read-out: % inhibition at 10 uM: FYN) was 13 ± 3% and the remaining activity at 10 µM (PASK; read-out: % Enzyme Activity (relative to DMSO controls), PASK) was 98%. For the same compound, the inhibition at 10 µM (PASK; read-out: % inhibition at 10 uM: PASK) was 2%, the remaining activity at 10 µM (TRKA; read-out: % Enzyme Activity (relative to DMSO controls), TRKA) was 20.6% and the inhibition at 10 µM (TRKA; read-out: % inhibition at 10 uM: TRKA) was 79 ± 1%. It also gave a remaining activity at 10 µM (TRKC; read-out: % Enzyme Activity (relative to DMSO controls), TRKC) of 68.4%, an inhibition at 10 µM (TRKC; read-out: % inhibition at 10 uM: TRKC) of 28 ± 5% and a remaining activity at 10 µM (LCK; read-out: % Enzyme Activity (relative to DMSO controls), LCK) of 72.8%. The inhibition at 10 µM (LCK; read-out: % inhibition at 10 uM: LCK) was 25 ± 3%, the remaining activity at 10 µM (YES/YES1; read-out: % Enzyme Activity (relative to DMSO controls), YES/YES1) was 77.2% and the inhibition at 10 µM (YES/YES1; read-out: % inhibition at 10 uM: YES) was 24 ± 1%. The “pActivity, HSP90AB1” value (HSP90AB1) was 7.6, the “pActivity, PIM1” value (PIM1) was 5.6 and the “pActivity, CDK2” value (CDK2) was 5.2. For the same compound, the “pActivity, PRKD2” value (PRKD2) was 5.8, the “pActivity, PRKD3” value (PRKD3) was 5.8 and the “pActivity, CSF1R” value (CSF1R) was 5.9. For the same compound, the “pActivity, RPS6KA3” value (RPS6KA3) was 5.5, the “pActivity, ROCK1” value (ROCK1) was 5.4 and the “pActivity, ROCK2” value (ROCK2) was 5.6. It also gave a remaining activity at 10 µM (ABL1; read-out: % Enzyme Activity (relative to DMSO controls), ABL1) of 80.2%, an inhibition at 10 µM (ABL1; read-out: % inhibition at 10 uM: ABL1) of 14 ± 8% and a remaining activity at 10 µM (DDR1; read-out: % Enzyme Activity (relative to DMSO controls), DDR1) of 65.8%. The inhibition at 10 µM (DDR1; read-out: % inhibition at 10 uM: DDR1) was 29 ± 8%.
